Test results published in patent US20110229482A1, “Method of inhibiting infection by HCV, other flaviviridae viruses, and any other virus that complexes to low density lipoprotein or to very low density lipoprotein in blood by preventing viral entry into a cell” (priority 2000, published 2011).
Read-outs that look alike come from different tables or passages of the source.

Legend:
[1] = target: T1, LDL receptor (Homo sapiens, UniProt P01130); experiment: DiI-LDL endocytosis (uptake) by cultured cells, flow cytometry / fluorescence microscopy; assay type: cell-based; conditions: for Mean fluorescence: DiI-LDL treatment
T1 construct: endogenous in cells; host or cells: G4 B-lymphocyte line (human-mouse heterohybridoma fused with patient B cells), HepG2 hepatoma cells
T1 sequence (P01130 22-860): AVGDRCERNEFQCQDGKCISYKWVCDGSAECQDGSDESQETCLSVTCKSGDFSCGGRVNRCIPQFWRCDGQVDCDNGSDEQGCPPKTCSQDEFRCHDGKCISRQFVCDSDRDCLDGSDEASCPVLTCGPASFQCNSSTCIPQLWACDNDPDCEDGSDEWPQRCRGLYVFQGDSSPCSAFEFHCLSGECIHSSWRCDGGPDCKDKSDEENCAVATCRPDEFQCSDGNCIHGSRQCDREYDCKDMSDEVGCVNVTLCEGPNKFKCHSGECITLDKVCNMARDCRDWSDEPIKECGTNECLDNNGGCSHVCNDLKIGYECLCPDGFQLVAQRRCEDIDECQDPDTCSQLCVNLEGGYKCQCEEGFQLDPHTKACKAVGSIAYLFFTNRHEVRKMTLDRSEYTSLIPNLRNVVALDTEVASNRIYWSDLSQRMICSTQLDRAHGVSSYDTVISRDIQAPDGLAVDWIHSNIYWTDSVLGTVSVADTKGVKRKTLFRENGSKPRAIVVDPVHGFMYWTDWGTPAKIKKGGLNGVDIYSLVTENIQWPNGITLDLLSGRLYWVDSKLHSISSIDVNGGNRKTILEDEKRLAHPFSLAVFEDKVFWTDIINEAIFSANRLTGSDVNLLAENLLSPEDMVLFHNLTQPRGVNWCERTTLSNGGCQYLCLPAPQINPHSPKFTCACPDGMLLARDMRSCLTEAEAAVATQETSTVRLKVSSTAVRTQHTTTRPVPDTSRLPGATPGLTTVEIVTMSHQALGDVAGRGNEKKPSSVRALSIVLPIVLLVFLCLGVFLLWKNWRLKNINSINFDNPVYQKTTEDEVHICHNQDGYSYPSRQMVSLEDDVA
Protocol: LDL Receptor Assays: Cells were cultured in Roswell Park Memorial Institute (RPMI) medium supplemented either with 10% BVDV-free bovine calf serum or with RPMI medium supplemented with 10% lipoprotein-deficient BVDV-free medium to upregulate expression of the LDL receptor. The cells were then washed twice with phosphate-buffered saline (PBS), pH 7.2. Cytospin preparations were made, fixed with acetone, blocked with 5% normal mouse serum, and the LDL receptor visualized by incubating the slides with 5 μg/ml purified IgG 2a monoclonal anti-LDL receptor antibody followed by a 1:50 dilution of fluorescein (FITC)-labeled goat anti-mouse [F(ab)′2] second antibody (Jackson Immunoresearch, West Grove, Pa.).
The cells were washed twice with cold PBS and fixed with 1% buffered paraformaldehyde, and cytospin preparations were made for fluorescent microscopic studies or cells in suspension were analyzed by flow cytometry. Flow cytometric analysis was performed using the Epic XL-MCL cytometer (Coulter Corp., Miami, Fla.) using a 575 BP filter. Nonspecific binding of DiI-LDL was determined using DiI-LDL treated with cyclohexanedione and was subtracted from the DiI-LDL binding to give specific DiI-LDL binding to cultured cells.

[2] = test system: HCV; assay type: cell-based, hepatitis C virus; design: key to Endocytosis of 1 × 10^6 gE HCV from each fraction intensity of staining: ++: Moderately positive; +: Weakly positive
[3] = test system: HCV; assay type: in vivo, mouse
[4] = test system: LDL receptor; experiment: LDL receptor expression in liver sections of hLDLR Tg mice, fluorescence staining; assay type: in vivo; conditions: Tg mouse pretreated with 0.5 mg, then inoculated with HCV
[5] = density gradient fractions of HCV serum, ISH

LDL: low density lipoprotein, d=1.019-1.063 g/ml, from normal sera or purchased from Cortex
Endocytosis of 5 μg DiI-labeled fraction mean fluorescence (log scale) ([1]; density gradient fractions of HCV serum): 9.98 | Inhibition of uptake of DiI-LDL ([1]; upregulated G4 cells, 5 μg DiI-LDL, excess unlabeled LDL): completely inhibited | Restoration of endocytosis of "free" HCV [2]: restoration of endocytosis | Inhibition of endocytosis of HCV (competitive) ([2]; HepG2 or B cells (G4 and E11), 25-100 μg/ml): completely inhibited | Endocytosis of 1 × 10^6 gE HCV from each fraction % cell positive [2, 5]: 75% | Endocytosis of 1 × 10^6 gE HCV from each fraction intensity of staining [2, 5]: +

DiI-LDL: LDL labeled with 1,1′-dioctadecyl-3,3,3′,3′-tetramethylindocarbocyanine iodine (DiI)
Mean fluorescence ([1]; G4 cells, lipoprotein deficient medium (upregulated LDL receptor)): 16 ± 7 | Mean fluorescence ([1]; G4 cells, routine culture medium (RPMI with 10% fetal bovine serum)): 4 ± 2.0 | Mean fluorescence ([1]; HepG2 cells, routine culture medium): 16 ± 5

5^th repeat peptide: 39 amino acid 5th repeat of the ligand binding domain of the LDL receptor, amino acids 193-231 of SEQ ID NO:1
Inhibition of endocytosis of HCV by hepatocytes ([3]; hLDLR Tg mouse, 1 mg one hour prior to intraperitoneal HCV (5.0×10^6 gE)): completely inhibits

heparin sulfate
Inhibition of endocytosis of HCV ([2]; 25 units/ml): inhibited

CC(C)c1c(C(=O)Nc2ccccc2)c(-c2ccccc2)c(-c2ccc(F)cc2)n1CC[C@@H](O)C[C@@H](O)CC(=O)O [atorvastatin]
Modulation of LDL receptor (fluorescence staining) [4]: upregulation of the LDL receptor | Quantitative HCV of the liver ([3]; Tg mouse pretreated with 0.5 mg, control mouse 43): 163 HCV gE per mg liver

soluble LDL receptor: soluble LDL receptor (SEQ ID NO:1)
Inhibition of endocytosis of HCV ([2]; Daudi cells, pretreatment 30 minutes at 37° C., HCV 2 hours at 37° C.): completely inhibits

O=C(O)CN(CCOCCOCCN(CC(=O)O)CC(=O)O)CC(=O)O [EGTA, ethylene glycol bis(β-aminoethyl ether)-N,N,N′,N′-tetraacetic acid]
Inhibition of endocytosis of HCV [2]: inhibited
